# Source: patent US8507656B2, “Stabilized angiopoietin-2 antibodies and uses thereof” (MedImmune Limited, priority 2008, dated 2013)
# Entries after “also recorded” stand apart in the source; their conditions may differ. Marks after values point to notes of the source that are not given here.
# Assays:
# [1] = tested on: HT-29 xenograft tumors; experiment: HT-29 xenograft model of colorectal cancer; format: in vivo; conditions: 3.19.3 10 mg/kg 2×wk i.p., Irinotecan 35 mg/kg/week i.v., combination of both
# Method: The anti-tumor activity of 3.19.3 was evaluated in combination with Irinotecan in the HT-29 xenograft model of colorectal cancer. HT-29 cells were cultured in flasks as routine until the cells reached sub-confluence. Cell suspensions containing approximately 3×10E6 cells were injected subcutaneously into the flank of female Swiss nude mice. When the tumor volume reached 200 mm^3, the mice were randomized in treatment groups of 8-10 mice and the treatments were initiated. 3.19.3 (10 mg/kg) in saline was injected intraperitoneally, twice per week for 2 weeks. Irinotecan (35 mg/kg) was administered by intravenous administration following a weekly schedule. The dimensions of each tumor and body weights were measured at least twice per week. The volume of the tumor was calculated as: Volume=Length×(Width)×0.5 (cm^3). […] The % tumor growth inhibition achieved is as follows: […]
# [2] = tested on: LoVo xenograft tumors; format: in vivo; conditions: 3.19.3 10 mg/kg 2×wk i.p., 5FU 100 mg/kg/week i.p., combination of both
# Method: The anti-tumor activity of 3.19.3 was evaluated in combination with 5-Fluoruracil (5FU) in the LoVo xenograft model of colorectal cancer. LoVo cells were cultured in flasks as routine until the cells reached sub-confluence. Cell suspensions containing approximately 3×10E6 cells were injected subcutaneously into the flank of female Swiss nude mice. When the tumor volume reached 200 mm^3, the mice were randomized in treatment groups of 8-10 mice and the treatments were initiated. 3.19.3 (10 mg/kg) in saline was injected intraperitoneally, twice per week for 2 weeks and 5-Flurouracil (100 mg/kg) was administered by intraperitoneal administration following a weekly schedule. The dimensions of each tumor and body weights were measured at least twice per week. The volume of the tumor was calculated as: Volume=Length×(Width)×0.5 (cm^3).
# [3] = tested on: collagen-induced arthritis; experiment: Collagen-induced arthritis (CIA), dose response (Example 11); format: in vivo, male DBA/1 mice
# [4] = tested on: MCF7 xenograft tumors; experiment: MCF7 breast cancer xenograft model; format: in vivo; conditions: 3.19.3 10 mg/kg 2×wk i.p., AZD6495 30 mg/kg bid p.o. 18 d, combination of both
# Method: The anti-tumor activity of the anti-Angiopoietin-2 monoclonal antibody 3.19.3 in combination with the small molecule CSF1R tyrosine kinase inhibitor AZD6495 (4-[(2,4-difluorophenyl)amino]-7-ethoxy-6-(4-methylpiperazin-1-yl)quinoline-3-carboxamide) was evaluated in a xenograft model of human breast carcinoma using the MCF7 cell line (FIG. 4a).
# Materials and Methods: Breast carcinoma MCF7 cells were cultured in flasks as routine until the cells reach sub-confluence. Immunodeficient 7-10 week old male NCr-nude mice were subcutaneously implanted with 8×10^6 MCF7 cells suspended 1:1 in Matrigel in the right flank. […]
# The mice were then randomized into cohorts containing 15 mice once the tumors reached approximately 100 mm^3. […] The body weights of each animal, and the dimensions of each tumor were measured twice per week. The volume of the tumor was calculated as: Volume=Length×(Width)^2×0.5 cm^3, or by bilateral Vernier caliper measurement and, taking length to be the longest diameter across the tumor and width the corresponding perpendicular, calculated using the formula (π/6)×(length×width)×√(length×width). Growth inhibition from the start of treatment was assessed by comparison of the differences in tumor volume between control and treated groups.
# [5] = 0.1 mg/kg ip every 3 days for 14 days from disease onset
# [6] = 1 mg/kg ip every 3 days for 14 days from disease onset
# [7] = 10 mg/kg ip every 3 days for 14 days from disease onset
substance,measurement,setting,value
"3.19.3: fully human anti-Ang-2 monoclonal antibody, wild type control; light chain SEQ ID No. 1, heavy chain SEQ ID No. 2 [Antibody 3.19.3]",% tumor growth inhibition,[1],44%
same,% tumor growth inhibition,[2],59%
same,% inhibition (AUC of Clinical Score),[3]; [5],16% +/− 13%
same,AUC of Clinical Score,[3]; [5],99 +/− 15
same,% inhibition (AUC of Clinical Score),[3]; [6],53% +/− 7%*
same,AUC of Clinical Score,[3]; [6],46 +/− 9
same,% inhibition (AUC of Clinical Score),[3]; [7],44% +/− 9%*
same,AUC of Clinical Score,[3]; [7],67 +/− 11
same,CD31+ microvessel density in synovium (in words),[3]; 3.19.3 0.1 mg/kg,no effect
same,"histopathological evaluation: synovial hyperplasia, synovitis, pannus, synovial fibrosis, periostitis (in words)","[3]; 3.19.3 0.1, 1 and 10 mg/kg, isotype control vs PBS vehicle",dose-dependent anti-arthritic effect
same,CD31+ microvessel density in synovium (in words),"[3]; 3.19.3 at 1 and 10 mg/kg, prednisolone 3 mg/kg",significant reduction in microvessel density; also recorded: significant reduction in the presence of microvessels
same,clinical signs of disease progression (arthritic score) (in words),[3]; doses of 1 and 10 mg/kg,significant reduction
same,% tumor growth inhibition,[4],62%
